Reference: patent US20260373266A1, “PROTEIN DEGRADERS AND USES THEREOF” (KYMERA THERAPEUTICS, INC., priority 2022, published 2026)

Target: T1, DCAF1 WD40 domain (residues 1077-1390) (Homo sapiens, UniProt Q9Y4B6)
T1 construct: DCAF1 WD40 domain (residues 1077-1390)
Experiment: DCAF1 binding assay by SPR (Biacore 8K+), DCAF1-3 KD
Conditions: 25 °C, read-out: DCAF1-3 SPR (KD)

T1 sequence (Q9Y4B6 1077-1390): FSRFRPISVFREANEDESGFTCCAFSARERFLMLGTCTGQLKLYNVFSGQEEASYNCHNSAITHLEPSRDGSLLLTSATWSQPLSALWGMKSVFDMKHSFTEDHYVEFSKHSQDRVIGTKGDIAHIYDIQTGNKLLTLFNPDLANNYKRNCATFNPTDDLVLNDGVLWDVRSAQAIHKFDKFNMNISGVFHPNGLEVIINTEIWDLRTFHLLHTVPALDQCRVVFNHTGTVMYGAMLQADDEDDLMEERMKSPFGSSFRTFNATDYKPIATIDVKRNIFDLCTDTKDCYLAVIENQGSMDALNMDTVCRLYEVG

Kd [µM] | SMILES
> 200 | Cc1sc2c(c1C)C(c1ccc(Cl)cc1)=N[C@@H](CC(=O)NCCCCCCCCCCCCC(=O)c1[nH]cc(C(=O)C[C@@H](CC(N)=O)c3cccc(Cl)c3)c1-c1ccccc1F)c1nnc(C)n1-2 [I-892]
> 200 | Fc1cccc(N2CCC[C@H]3[C@@H]2CCN3c2cc(N3CCOCC3)ccn2)c1 [I-540]
> 200 | C=CC(=O)Nc1ccc2[nH]cc(C(=O)N[C@@H](CC(N)=O)c3cccc(Cl)c3)c2c1 [I-475]
> 200 | C=CC(=O)N1CCCC(c2[nH]ncc2C(=O)N[C@@H](CC(N)=O)c2cccc(Cl)c2)C1 (stereo partly drawn) [I-469]
10 to 100 | O=C(c1cc(N2CCCCC2)ccn1)[C@H]1CCCN(c2cccc(F)c2)C1 [I-613]
10 to 100 | O=c1[nH]cc(C2=CCOCC2)cc1N[C@@H]1CCCN(c2cccc(F)c2)C1 [I-647]
> 200 | CCCN(c1nccc(N2CCOCC2)n1)[C@@H]1CCCN(c2cccc(F)c2)C1 [I-44]
< 10 | Cc1ccccc1C(=O)c1[nH]cc(C(=O)N[C@@H](CC(N)=O)c2cccc(Cl)c2)c1-c1c(C)cccc1F [I-626]
> 200 | NC(=O)C[C@@]1(NC(=O)c2c[nH]nc2-c2ccccc2F)CCCc2c(Cl)cccc21 [I-155]
> 200 | NC(=O)C[C@H](NC(=O)c1cn[nH]c1-c1ccccc1F)c1ccc(O)cc1 [I-130]
< 10 | OC1CCCN(c2ccnc(N[C@@H]3CCCN(c4cccc(F)c4)C3)c2)C1 (stereo partly drawn) [I-701]
< 10 | C=CC(=O)NCCCCC1CCN(c2ccnc(N3CC[C@@H]4[C@H]3CCCN4c3cccc(F)c3)c2)CC1 [I-852]
> 200 | CN1CCC(n2cc(N3CCC[C@@H](Nc4cc(N5CCOCC5)ccn4)C3)cn2)CC1 [I-419]
10 to 100 | O[C@@]1(c2ccccc2)CCC[C@@H](Nc2cc(N3CCCCC3)ccn2)C1 [I-929]
> 200 | O=C(N[C@@H](c1cnoc1)c1cccc(Cl)c1)c1c[nH]nc1-c1ccccc1F [I-233]
< 10 | COc1cccc(C(=O)c2[nH]cc(C(=O)N[C@@H](CC(N)=O)c3cccc(Cl)c3)c2-c2c(F)ccc(F)c2C)c1 [I-795]
10 to 100 | Fc1cccc(N2CCC[C@@H](Nc3cc(N4Cc5ccccc5C4)ccn3)C2)c1 [I-554]
10 to 100 | Clc1nc2c(c(N3CCC[C@@H](Nc4cc(N5CCOCC5)ccn4)C3)n1)CCNC2 [I-681]
< 10 | Cc1c(F)ccc(F)c1-c1c(C(=O)N[C@@H](CC(N)=O)c2cccc(Cl)c2)c[nH]c1C(=O)c1cccc(C(C)C)c1 [I-739]
> 200 | NC(=O)C[C@H](NC(=O)c1cn[nH]c1-c1cc(CC(F)F)ccc1F)c1cccc(Cl)c1 [I-251]
< 10 | Cc1nc(Nc2ncc(C(=O)Nc3c(C)cccc3Cl)s2)cc(N2CCC(OC3CCN(CCCCCCCC(=O)N4CCN(c5ccc6c(NCCN)nc(C7(c8ccc(Cl)cc8)CCCCC7)nc6c5)CC4)CC3)CC2)n1 [I-1053]

Kd [µM] | SMILES
< 10 | Cc1cccc(F)c1-c1c(C(=O)N[C@@H](CC(N)=O)c2cccc(Cl)c2)c[nH]c1C(=O)c1ccccn1 [I-699]
< 10 | CCC(=O)NC1CCC2(CC1)CCN(c1cccc(N[C@@H]3CCCN(c4cccc(F)c4)C3)c1)CC2 [I-853]
100 to 200 | NCCNCc1cc(N[C@@H]2CCCN(c3cccc(F)c3)C2)cc(N2CCCCC2)c1 [I-947]
> 200 | C=CC(=O)N1CCN(c2ccnc(N[C@@H]3CCCN(c4cccc(F)c4)C3)c2)CC1 [I-446]
> 200 | CC(NC(=O)c1cn[nH]c1-c1cccc(Cl)c1)c1ccc[nH]1 (stereo not drawn) [I-836]
100 to 200 | C=CC(=O)NCCCC1CCN(c2ccnc(N3CC[C@@H]4[C@H]3CCCN4c3cccc(F)c3)c2)CC1 [I-705]
> 200 | c1cncc(-c2csc(N3CCC[C@@H](Nc4cc(N5CCOCC5)ccn4)C3)n2)c1 [I-412]
10 to 100 | OC[C@@H]1CCN(c2cccc(F)c2)C[C@H]1Nc1cc(N2CCCCC2)ccn1 [I-990]
> 200 | Fc1cccc(N2CCC[C@]3(CCc4cnc(N5CCOCC5)cc4N3)C2)c1 [I-214]
> 200 | Fc1cccc(N2CCC[C@@H](Nc3ncc(N4CCOCC4)s3)C2)c1 [I-328]
10 to 100 | NCCNc1cnc(N2CCCCC2)nc1N[C@@H]1CCCN(c2cccc(F)c2)C1 [I-1014]
> 200 | Fc1cccc(N2CCC[C@]3(Cc4cnc(N5CCOCC5)cc4N3)C2)c1 [I-213]
< 10 | COCCOCC[C@H]1CN(c2cc(N3CCCCC3)ccn2)[C@@H]2CCCN(c3cccc(F)c3)[C@H]12 [I-931]
10 to 100 | c1cc2ccc(N3CCC[C@@H](Nc4nccc(N5CCOCC5)n4)C3)cc2cn1 [I-57]
10 to 100 | NC(=O)C[C@H](NC(=O)c1cn[nH]c1-c1ccc(C(N)=O)cc1)c1cccc(Cl)c1 [I-351]
> 200 | COc1ccc(N2CCOCC2)cc1N[C@@H]1CCCN(c2cccc(F)c2)C1 [I-121]
100 to 200 | c1cnc2c(N3CCC[C@@H](Nc4cc(N5CCOCC5)ccn4)C3)nccc2c1 [I-64]
> 200 | NC(=O)C[C@H](NC(=O)c1cn[nH]c1N1CCCCC1)c1cccc(Cl)c1 [I-159]
< 10 | c1ccc(N2CCC[C@@H]3[C@H]2CCN3c2cc(N3CC4CC(C4)C3)ccn2)cc1 [I-708]
> 200 | NC(=O)C[C@H](NC(=O)c1cnn(CC2CCCC2)c1-c1ccccc1F)c1cccc(Cl)c1 [I-166]
10 to 100 | OC[C@@H]1CC[C@@H](Nc2cc(N3CCCCC3)ccn2)CN1c1cccc(F)c1 [I-995]

Kd [µM] | SMILES
10 to 100 | CN(c1ccnc(N[C@@H]2CCCN(c3cccc(F)c3)C2)c1)C1CCCCC1 [I-578]
> 200 | CCCCN1CCN(c2ccnc(N[C@@H]3CCCN(c4cccc(F)c4)C3)c2)CC1 [I-318]
10 to 100 | c1ccc2c(N3CCC[C@@H](Nc4cncc(N5CCOCC5)c4)C3)nccc2c1 [I-364]
> 200 | C=CC(=O)N1CCC[C@H](N(C)c2ccnc(N[C@@H]3CCCN(c4cccc(F)c4)C3)c2)C1 [I-481]
10 to 100 | c1cc(N2CCOCC2)cc(N[C@@H]2CCCN(c3ccc(CN4CCOCC4)cn3)C2)n1 [I-786]
> 200 | CCN1CCN(c2ccnc(NC3CCCN(c4cccc(F)c4)C3)n2)CC1 (stereo not drawn) [I-24]
10 to 100 | C=CC(=O)NCCCCN1CCN(c2ccnc(N[C@@H]3CCCN(c4cccc(F)c4)C3)c2)CC1 [I-633]
> 200 | Cc1sc2c(c1C)C(c1ccc(Cl)cc1)=N[C@@H](CC(=O)NCCCCCCCCCCCCCCCCCC(=O)c1[nH]cc(C(=O)N[C@@H](CC(N)=O)c3cccc(Cl)c3)c1-c1ccccc1F)c1nnc(C)n1-2 [I-893]
> 200 | Fc1cccc(N2CCCC(Nc3nccc(N4CCNCC4)n3)C2)c1 (stereo not drawn) [I-23]
< 10 | Cc1sc2c(c1C)C(c1ccc(Cl)cc1)=N[C@@H](CC(=O)NCCOCCOCCOCCCc1ccc(C(=O)c3[nH]cc(C(=O)N[C@@H](CC(N)=O)c4cccc(Cl)c4)c3-c3c(F)ccc(F)c3C)cc1)c1nnc(C)n1-2 [I-908]
> 200 | COC(C)(c1cc(N2CCOCC2)ccn1)C1CCCN(c2cccc(F)c2)C1 (stereo not drawn) [I-262]
> 200 | N#Cc1nccc(CN2CCC[C@@H](Nc3cc(N4CCOCC4)ccn3)C2)n1 [I-476]
< 10 | NC(=O)CC(NC(=O)c1cn[nH]c1-c1c(F)cc(Cl)cc1F)c1ccc(F)c(Cl)c1 (stereo not drawn) [I-1049]
10 to 100 | c1cnc2cc(N3CCC[C@@H](Nc4nccc(N5CCOCC5)n4)C3)ccc2c1 [I-45]
> 200 | O=S(=O)(c1cc(N2CCOCC2)ccn1)C1CCCN(c2cccc(F)c2)C1 (stereo not drawn) [I-264]
< 10 | Fc1cccc(N2CCC[C@@H](Nc3cc(N4CC5CC(C5)C4)ccn3)C2)c1 [I-576]
10 to 100 | CC(=O)N1CCN(c2ccnc(N3CC[C@@H]4[C@H]3CCCN4c3cccc(F)c3)c2)CC1 [I-948]
< 10 | NCc1ccc(N2CCC[C@@H](Nc3cc(N4CCOCC4)ccn3)C2)cc1 [I-868]
10 to 100 | NC(=O)C[C@H](NC(=O)c1cn(CC2CC2)nc1-c1ccccc1F)c1cccc(Cl)c1 [I-137]
100 to 200 | C=CC(=O)NCCCCN1CCN(c2ccnc(N(CCCOCCOCCOCCOCCNC(=O)C[C@@H]3N=C(c4ccc(Cl)cc4)c4c(sc(C)c4C)-n4c(C)nnc43)[C@@H]3CCCN(c4cccc(F)c4)C3)c2)CC1 [I-906]
10 to 100 | NC(=O)OCc1cccc(N2CCC[C@@H]3[C@H]2CCN3c2cc(N3CCCCC3)ccn2)c1 [I-955]

Kd [µM] | SMILES
< 10 | Cc1cccc(F)c1-c1[nH]ncc1C(=O)N[C@@H](CC(N)=O)c1cccc(Cl)c1 [I-149]
> 200 | CS(=O)(=O)Cc1ccc(F)c(-c2[nH]ncc2C(=O)N[C@H](CC(N)=O)c2cccc(Cl)c2)c1 [I-532]
> 200 | NC(=O)C[C@H](NC(=O)c1cnn(C(=O)c2ccncn2)c1-c1ccccc1F)c1cccc(Cl)c1 [I-174]
> 200 | NC(=O)c1ccc(N2CCC[C@@H](Nc3cc(N4CCOCC4)ccn3)C2)cc1 [I-769]
> 200 | NC(=O)Cc1cccc(N2CCC[C@@H](Nc3cc(N4CCOCC4)ccn3)C2)c1 [I-776]
< 10 | COCCOCCOCC[C@H]1CN(c2cc(N3CCCCC3)ccn2)[C@@H]2CCCN(c3cccc(F)c3)[C@H]12 [I-951]
> 200 | Fc1cccc(N2CCC[C@@H](Nc3cc(N4CCOCC4)ccn3)C23COC3)c1 [I-280]
< 10 | O=c1[nH]cc(N2CCOCC2)cc1N[C@@H]1CCCN(c2cccc(F)c2)C1 [I-533]
< 10 | COCCOCC(=O)c1[nH]cc(C(=O)N[C@@H](CC(N)=O)c2cccc(Cl)c2)c1-c1ccccc1F [I-556]
10 to 100 | COC(=O)Cc1ccnc(N2CCC[C@@H](Nc3cc(N4CCOCC4)ccn3)C2)c1 [I-429]
10 to 100 | O=c1cc(N2CCC[C@@H](Nc3cc(N4CCCCC4)ccn3)C2)cc[nH]1 [I-945]
> 200 | Cc1nn(-c2ccccc2)c(C)c1N1CCC[C@@H](Nc2cc(N3CCOCC3)ccn2)C1 [I-418]
< 10 | C[C@@H]1CCCCN1c1ccnc(N[C@@H]2CCCN(c3cccc(F)c3)C2)c1 [I-568]
< 10 | Fc1cccc(N2CCC[C@H]3[C@@H]2CCN3c2cc(N3CCCCCC3)ccn2)c1 [I-636]
> 200 | COc1ccccc1N1CCC[C@@H](Nc2cc(N3CCOCC3)ncn2)C1 [I-15]
> 200 | Fc1cccc([C@@H]2CCC[C@@H](Nc3cc(N4CCOCC4)ncn3)C2)c1 [I-183]
10 to 100 | Fc1cccc(N2CCC[C@@H](Nc3cc(N4CC5CC5C4)ccn3)C2)c1 (stereo partly drawn) [I-574]
> 200 | C=CC(=O)N[C@H]1CC[C@H](c2n[nH]cc2C(=O)N[C@@H](CC(N)=O)c2cccc(Cl)c2)CC1 [I-482]
